Results on 19 compounds are retold here after US20250101041A1, “POSITIVE ALLOSTERIC MODULATORS OF THE MUSCARINIC ACETYLCHOLINE RECEPTOR M4” (Vanderbilt University, priority 2022, published 2025).

The target of the experiment is T1, human mAChR M4 (Homo sapiens, UniProt P08173).
T1 construct: expressed in transfected cells; host or cells: CHO-K1 (American Type Culture Collection), stably expressing hM4 and Gqi5
T1 sequence (P08173 1-479): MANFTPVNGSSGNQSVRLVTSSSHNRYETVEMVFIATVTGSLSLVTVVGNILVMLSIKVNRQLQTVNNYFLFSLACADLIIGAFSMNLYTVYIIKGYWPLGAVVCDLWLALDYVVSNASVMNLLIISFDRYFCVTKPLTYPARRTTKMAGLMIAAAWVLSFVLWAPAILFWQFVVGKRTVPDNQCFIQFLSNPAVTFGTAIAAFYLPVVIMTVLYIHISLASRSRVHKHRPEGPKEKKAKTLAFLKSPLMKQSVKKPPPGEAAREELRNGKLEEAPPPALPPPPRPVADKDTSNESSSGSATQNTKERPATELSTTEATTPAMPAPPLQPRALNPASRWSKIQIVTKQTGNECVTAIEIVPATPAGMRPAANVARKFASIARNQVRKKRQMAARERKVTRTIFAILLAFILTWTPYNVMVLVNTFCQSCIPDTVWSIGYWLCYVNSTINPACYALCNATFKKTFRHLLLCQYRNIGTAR
The experiment is described as follows: mAChR M4 cell-based functional assay: calcium mobilization (Fluo-4, FDSS), potentiation of EC20 acetylcholine response in hM4-Gqi5 CHO-K1 cells. The note with it: human M4; for Emax at 30 µM: CHO-K1, % ACh maximum at 30 μM; for EC50: potentiation of EC20 acetylcholine response, calcium mobilization. The procedure: Human and rat M4 cDNAs, along with the chimeric G protein Gqi5, were transfected into Chinese hamster ovary (CHO-K1) cells purchased from the American Type Culture Collection using Lipofectamine2000. hM4-Gqi5 cells were grown in Ham's F-12 medium containing 10% heat-inactivated fetal bovine serum (FBS), 20 mM HEPES, 50 μg/mL G418 sulfate, and 500 μg/mL Hygromycin B. rM4-Gqi5 cells were grown in DMEM containing 10% heat-inactivated FBS, 20 mM HEPES, 400 μg/mL G418 sulfate, and 500 μg/mL Hygromycin B.
For high throughput measurement of agonist-evoked increases in intracellular calcium, CHO-K1 cells stably expressing muscarinic receptors were plated in growth medium lacking G418 and hygromycin at 15,000 cells/20 μL/well in Greiner 384-well black-walled, tissue culture (TC)-treated, clear-bottom plates (VWR). Cells were incubated overnight at 37° C. and 5% CO2. The next day, cells were washed using an ELX 405 (BioTek) with assay buffer; the final volume was then aspirated to 20 μL. Next, 20 μL of a […] of Fluo-4/acetoxymethyl ester (Invitrogen, Carlsbad, CA), prepared as a 2.3 mM stock in DMSO and mixed in a 1:1 ratio with 10% (w/v) Pluronic F-127 and diluted in assay buffer, was added to the wells and the cell plates were incubated for 50 min at 37° C. and 5% CO2. Dye was removed by washing with the ELX 405 and the final volume was aspirated to 20 μL. Compound master plates were formatted in an 11 point concentration-response curve (CRC) format (1:3 dilutions) in 100% DMSO with a starting concentration of 10 mM using a BRAVO liquid handler (Agilent). Test compound CRCs were then transferred to daughter plates (240 nL) using the Echo acoustic plate reformatter (Labcyte, Sunnyvale, CA) and then diluted into assay buffer (40 μL) to a 2× stock using a Thermo Fisher Combi (Thermo Fisher Scientific, Waltham, MA).
Calcium flux was measured using the Functional Drug Screening System (FDSS) 6000 or 7000 (Hamamatsu Corporation, Tokyo, Japan) as an increase in the fluorescent static ratio. Compounds were applied to cells (20 μL, 2X) using the automated system of the FDSS at 2-4 seconds into the protocol and the data were collected at 1 Hz. At 144 seconds, 10 μL of an EC20 concentration of the muscarinic receptor agonist acetylcholine was added (5×), followed by the addition of 12 μL of an […] concentration of acetylcholine at the 230 second time point (5×). Agonist activity was analyzed as a concentration-dependent increase in calcium mobilization upon compound addition. Positive allosteric modulator activity was analyzed as a concentration-dependent increase in the EC20 acetylcholine response. Antagonist activity was analyzed as a concentration-dependent decrease in the EC20 acetylcholine response. Concentration-response curves were generated using a four-parameter logistical equation in XLFit curve fitting software (IDBS, Bridgewater, NJ) for Excel (Microsoft, Redmond, WA) or Prism (GraphPad Software, Inc., San Diego, CA).
Compounds were synthesized as described above. Activity (EC50 and Emax) was determined in the mAChR M4 cell-based functional assay as described above and the data are shown in Table 4. The compound number corresponds to the compound numbers used in Tables 1-3.
For orientation: Calcium assays in cells follow changes in intracellular calcium, usually with a dye or a luminescent sensor.

Usually Emax stands for the size of the effect at its maximum, as opposed to the concentration needed. As usually defined, the EC50 is the concentration needed to bring the measured effect to its halfway point. For the compound `Cc1cc(=O)n2nc(N3CCc4ncc(-c5ccccc5C(F)(F)F)cc4C3)c(C)cc2n1` [Compound 1-255, 2,8-dimethyl-7-(3-(2-(trifluoromethyl)phenyl)-7,8-dihydro-1,6-naphthyridin-6(5H)-yl)-4H-pyrimido[1,2-b] pyridazin-4-one], the Emax at 30 µM is 60% and the EC50 was 2370 nM.
In the case of `Cc1cc(=O)n2nc(N3CCc4ncc(N5CC6CC5CO6)cc4C3)c(C)c(C)c2n1` (centres unmarked) [Compound 2-37, 7-(3-(2-oxa-5-azabicyclo[2.2.1]heptan-5-yl)-7,8-dihydro-1,6-naphthyridin-6(5H)-yl)-2,8,9-trimethyl-4H-pyrimido[1,2-b]pyridazin-4-one], the Emax at 30 µM came out at 81% and the 50% effective concentration (EC50) is 1340 nM.
As for `Cc1ccc(-c2cnc3c(c2)CN(c2nn4c(=O)ccnc4c(C)c2C2CC2)CC3)cn1` [Compound 1-112, 8-cyclopropyl-9-methyl-7-(3-(6-methylpyridin-3-yl)-7,8-dihydro-1,6-naphthyridin-6(5H)-yl)-4H-pyrimido[1,2-b]pyridazin-4-one], the Emax at 30 µM worked out at 67% and the EC50 came out at 668 nM.
For the compound `Cc1cc(=O)n2nc(N3CCc4ncc(-c5ccccc5O)cc4C3)c(C)cc2n1` [Compound 1-235, 7-(3-(2-hydroxyphenyl)-7,8-dihydro-1,6-naphthyridin-6(5H)-yl)-2,8-dimethyl-4H-pyrimido[1,2-b]pyridazin-4-one], the maximal response (Emax) at 30 µM is 62% and the EC50 came to 568 nM.
With `Cc1ccc(-c2cnc3c(c2)CN(c2nn4c(=O)cc(C(C)C)nc4c(C)c2C)CC3)cn1` [Compound 1-108, 2-isopropyl-8,9-dimethyl-7-(3-(6-methylpyridin-3-yl)-7,8-dihydro-1,6-naphthyridin-6(5H)-yl)-4H-pyrimido[1,2-b]pyridazin-4-one], the maximal response (Emax) at 30 µM worked out at 94% and the concentration for a half-maximal effect (EC50) turned out to be 158 nM.
As for `COc1cnccc1Nc1cnc2c(c1)CN(c1nn3c(=O)ccnc3cc1C)CC2` [Compound 2-112, 7-(3-((3-methoxypyridin-4-yl)amino)-7,8-dihydro-1,6-naphthyridin-6(5H)-yl)-8-methyl-4H-pyrimido[1,2-b]pyridazin-4-one], the maximal response (Emax) at 30 µM is 64% and the EC50 came out at 2710 nM.
Turning to `Cc1cc(=O)n2nc(N3CCc4ncc(-c5cnn(CCN(C)C)c5)cc4C3)c(C)c(C)c2n1` [Compound 1-177, 7-(3-(1-(2-(dimethylamino)ethyl)-1H-pyrazol-4-yl)-7,8-dihydro-1,6-naphthyridin-6(5H)-yl)-2,8,9-trimethyl-4H-pyrimido[1,2-b]pyridazin-4-one], the maximum response (Emax) at 30 µM stood at 84% and the EC50 turned out to be 1420 nM.
For `Cc1cc(=O)n2nc(N3CCc4ncc(-c5cnc(Cl)cc5C)cc4C3)c(C)cc2n1` [Compound 1-207, 7-(3-(6-chloro-4-methylpyridin-3-yl)-7,8-dihydro-1,6-naphthyridin-6(5H)-yl)-2,8-dimethyl-4H-pyrimido[1,2-b]pyridazin-4-one], in that order: 91% and 315 nM.
In the case of `Cc1cc2ncc(C3=CCCC3)c(=O)n2nc1N1CCc2ncc(C(F)(F)F)cc2C1` [Compound 1-20, 3-(Cyclopent-1-en-1-yl)-8-methyl-7-(3-(trifluoromethyl)-7,8-dihydro-1,6-naphthyridin-6(5H)-yl)-4H-pyrimido[1,2-b]pyridazin-4-one], the maximum response (Emax) at 30 µM was found to be 70% and the concentration for a half-maximal effect (EC50) was 586 nM.
As for `Cc1cc2ncc(Cl)c(=O)n2nc1N1CCc2ncc(N3CCCn4nccc43)cc2C1` [Compound 2-4, 3-chloro-7-(3-(6,7-dihydropyrazolo[1,5-a]pyrimidin-4(5H)-yl)-7,8-dihydro-1,6-naphthyridin-6(5H)-yl)-8-methyl-4H-pyrimido[1,2-b]pyridazin-4-one], the Emax at 30 µM is 115% and the EC50 turned out to be 30 nM.
For `Cc1cc2nccc(=O)n2nc1N1CCc2ncc(-c3cnc(F)c(F)c3)cc2C1` [Compound 1-331, 7-(3-(5,6-difluoropyridin-3-yl)-7,8-dihydro-1,6-naphthyridin-6(5H)-yl)-8-methyl-4H-pyrimido [1,2-b]pyridazin-4-one], the Emax at 30 µM is 53% and the 50% effective concentration (EC50) came out at 1250 nM.
For `Cc1cc2nccc(=O)n2nc1N1CCc2ncc(N3CC(C)Oc4cc(F)ccc43)cc2C1` (centres unmarked) [Compound 2-55, 7-(3-(7-fluoro-2-methyl-2,3-dihydro-4H-benzo[b][1,4]oxazin-4-yl)-7,8-dihydro-1,6-naphthyridin-6(5H)-yl)-8-methyl-4H-pyrimido[1,2-b]pyridazin-4-one], in that order: 89% and 108 nM.
For `Cc1cc2n(n1)CCCN2c1cnc2c(c1)CN(c1nn3c(=O)cc(C(F)F)nc3cc1C)CC2` [Compound 2-28, 2-(difluoromethyl)-8-methyl-7-(3-(2-methyl-6,7-dihydropyrazolo[1,5-a]pyrimidin-4(5H)-yl)-7,8-dihydro-1,6-naphthyridin-6(5H)-yl)-4H-pyrimido[1,2-b]pyridazin-4-one], the Emax at 30 µM turned out to be 85% and the EC50 came out at 19 nM.
Regarding `Cc1cc(OC(F)F)ncc1-c1cnc2c(c1)CN(c1nn3c(=O)ccnc3cc1C)CC2` [Compound 1-317, 7-(3-(6-(difluoromethoxy)-4-methylpyridin-3-yl)-7,8-dihydro-1,6-naphthyridin-6(5H)-yl)-8-methyl-4H-pyrimido[1,2-b]pyridazin-4-one], the maximal response (Emax) at 30 µM turned out to be 70% and the EC50 was found to be 716 nM.
In the case of `Cc1ccc(-c2cnc3c(c2)CN(c2nn4c(=O)cc(C)nc4cc2C)CC3)cc1` [Compound 1-293, 2,8-dimethyl-7-(3-(p-tolyl)-7,8-dihydro-1,6-naphthyridin-6(5H)-yl)-4H-pyrimido[1,2-b]pyridazin-4-one], the maximum response (Emax) at 30 µM stood at 88% and the EC50 stood at 331 nM.
Taken in the same sequence, the figures for `Cc1ncc(CNc2cnc3c(c2)CN(c2nn4c(=O)ccnc4cc2C)CC3)o1` [Compound 2-129, 8-methyl-7-(3-(((2-methyloxazol-5-yl)methyl)amino)-7,8-dihydro-1,6-naphthyridin-6(5H)-yl)-4H-pyrimido[1,2-b]pyridazin-4-one] were 105% and 686 nM.
As to `Cc1cc2nccc(=O)n2nc1N1CCc2ncc(Oc3ccccc3F)cc2C1` [Compound 3-1, 7-(3-(2-fluorophenoxy)-7,8-dihydro-1,6-naphthyridin-6(5H)-yl)-8-methyl-4H-pyrimido[1,2-b]pyridazin-4-one], the Emax at 30 µM was 75% and the EC50 amounted to 40 nM.
For the compound `Cc1cc2nccc(=O)n2nc1N1CCc2ncc(N3CCOC(C)(C)C3)cc2C1` [Compound 2-68, 7-(3-(2,2-dimethylmorpholino)-7,8-dihydro-1,6-naphthyridin-6(5H)-yl)-8-methyl-4H-pyrimido[1,2-b]pyridazin-4-one], the Emax at 30 µM was 96% and the half-maximal effective concentration (EC50) came out at 113 nM.
`COCc1cc(=O)n2nc(N3CCc4ncc(-c5ccsc5)cc4C3)c(C)cc2n1` [Compound 1-370, 2-(methoxymethyl)-8-methyl-7-(3-(thiophen-3-yl)-7,8-dihydro-1,6-naphthyridin-6(5H)-yl)-4H-pyrimido[1,2-b]pyridazin-4-one]: the maximal effect (Emax) at 30 µM stood at 94% and the EC50 stood at 153 nM.
